{"source": "ChEMBL document CHEMBL5325491", "about": "“Small-Molecule Hydrophobic Tagging: A Promising Strategy of Druglike Technology for Targeted Protein Degradation” (J Med Chem, 2023)", "key": {"PC-9": {"system": "PC-9", "assay": "Anticancer activity against human PC-9 cells xenografted in NSG mouse assessed as tumor growth inhibition at 20 mg/kg, ip administered once every two days for 14 days relative to control", "format": "functional", "conditions": "PC-9, 336 h, time 14 day, read-out: TGI"}, "[1]": {"assay": "Induction of Akt2 (unknown origin) degradation", "design": "species or system Homo sapiens"}, "[2]": {"target": "RAC-alpha serine/threonine-protein kinase (Homo sapiens, UniProt P31749)", "sequence (P31749 whole entry)": "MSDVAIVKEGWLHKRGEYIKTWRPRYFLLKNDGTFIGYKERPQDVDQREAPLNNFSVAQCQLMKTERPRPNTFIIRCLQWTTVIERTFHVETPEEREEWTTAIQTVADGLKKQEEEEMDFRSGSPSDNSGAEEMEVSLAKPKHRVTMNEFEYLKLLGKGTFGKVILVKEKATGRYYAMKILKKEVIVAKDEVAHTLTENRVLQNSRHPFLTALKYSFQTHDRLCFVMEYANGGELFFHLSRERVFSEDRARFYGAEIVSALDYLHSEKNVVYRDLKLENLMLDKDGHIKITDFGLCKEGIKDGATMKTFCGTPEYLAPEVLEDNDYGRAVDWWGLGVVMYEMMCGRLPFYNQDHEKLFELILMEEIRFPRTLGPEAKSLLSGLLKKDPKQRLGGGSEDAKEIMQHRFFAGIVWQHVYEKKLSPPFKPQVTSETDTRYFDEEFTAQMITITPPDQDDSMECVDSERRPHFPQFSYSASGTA", "assay": "Induction of Akt1 (unknown origin) degradation"}, "[3]": {"target": "RAC-gamma serine/threonine-protein kinase (Homo sapiens, UniProt Q9Y243)", "sequence (Q9Y243 whole entry)": "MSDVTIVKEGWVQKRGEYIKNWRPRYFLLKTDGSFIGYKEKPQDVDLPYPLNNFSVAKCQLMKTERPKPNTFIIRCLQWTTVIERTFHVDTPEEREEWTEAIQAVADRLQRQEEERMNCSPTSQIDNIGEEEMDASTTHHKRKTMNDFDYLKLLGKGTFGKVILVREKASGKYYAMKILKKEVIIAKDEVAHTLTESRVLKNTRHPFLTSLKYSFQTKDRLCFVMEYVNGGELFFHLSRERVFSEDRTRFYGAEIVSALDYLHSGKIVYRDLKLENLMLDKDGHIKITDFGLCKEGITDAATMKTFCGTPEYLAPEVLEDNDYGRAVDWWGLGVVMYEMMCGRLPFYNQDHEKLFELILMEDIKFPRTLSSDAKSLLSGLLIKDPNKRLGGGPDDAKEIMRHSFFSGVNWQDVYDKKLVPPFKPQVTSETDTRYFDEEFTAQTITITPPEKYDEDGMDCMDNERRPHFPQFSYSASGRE", "assay": "Induction of Akt3 (unknown origin) degradation"}, "MCF7": {"system": "MCF7", "assay": "Anticancer activity against EZH2 dependent human MCF7 cells assessed as cell growth inhibition by MTT assay", "format": "functional"}, "KARPAS-422": {"system": "KARPAS-422", "assay": "Anticancer activity against EZH2 dependent human KARPAS-422 cells assessed as cell growth inhibition by MTT assay", "format": "functional"}, "SU-DHL-8": {"system": "SU-DHL-8", "assay": "Anticancer activity against EZH2 dependent human SU-DHL-8 cells assessed as cell growth inhibition by MTT assay", "format": "functional"}, "HCC1187": {"system": "HCC1187", "assay": "Anticancer activity against EZH2 dependent human HCC1187 cells assessed as cell growth inhibition by MTT assay", "format": "functional"}, "HCC70": {"system": "HCC70", "assay": "Anticancer activity against EZH2 dependent human HCC70 cells assessed as cell growth inhibition by MTT assay", "format": "functional"}, "HCC1954": {"system": "HCC1954", "assay": "Anticancer activity against EZH2 dependent human HCC1954 cells assessed as cell growth inhibition by MTT assay", "format": "functional"}, "BT-549": {"system": "BT-549", "assay": "Anticancer activity against EZH2 dependent human BT-549 cells assessed as cell growth inhibition by MTT assay", "format": "functional"}, "[4]": {"target": "ALK tyrosine kinase receptor (Homo sapiens, UniProt Q9UM73)", "sequence (Q9UM73 whole entry)": "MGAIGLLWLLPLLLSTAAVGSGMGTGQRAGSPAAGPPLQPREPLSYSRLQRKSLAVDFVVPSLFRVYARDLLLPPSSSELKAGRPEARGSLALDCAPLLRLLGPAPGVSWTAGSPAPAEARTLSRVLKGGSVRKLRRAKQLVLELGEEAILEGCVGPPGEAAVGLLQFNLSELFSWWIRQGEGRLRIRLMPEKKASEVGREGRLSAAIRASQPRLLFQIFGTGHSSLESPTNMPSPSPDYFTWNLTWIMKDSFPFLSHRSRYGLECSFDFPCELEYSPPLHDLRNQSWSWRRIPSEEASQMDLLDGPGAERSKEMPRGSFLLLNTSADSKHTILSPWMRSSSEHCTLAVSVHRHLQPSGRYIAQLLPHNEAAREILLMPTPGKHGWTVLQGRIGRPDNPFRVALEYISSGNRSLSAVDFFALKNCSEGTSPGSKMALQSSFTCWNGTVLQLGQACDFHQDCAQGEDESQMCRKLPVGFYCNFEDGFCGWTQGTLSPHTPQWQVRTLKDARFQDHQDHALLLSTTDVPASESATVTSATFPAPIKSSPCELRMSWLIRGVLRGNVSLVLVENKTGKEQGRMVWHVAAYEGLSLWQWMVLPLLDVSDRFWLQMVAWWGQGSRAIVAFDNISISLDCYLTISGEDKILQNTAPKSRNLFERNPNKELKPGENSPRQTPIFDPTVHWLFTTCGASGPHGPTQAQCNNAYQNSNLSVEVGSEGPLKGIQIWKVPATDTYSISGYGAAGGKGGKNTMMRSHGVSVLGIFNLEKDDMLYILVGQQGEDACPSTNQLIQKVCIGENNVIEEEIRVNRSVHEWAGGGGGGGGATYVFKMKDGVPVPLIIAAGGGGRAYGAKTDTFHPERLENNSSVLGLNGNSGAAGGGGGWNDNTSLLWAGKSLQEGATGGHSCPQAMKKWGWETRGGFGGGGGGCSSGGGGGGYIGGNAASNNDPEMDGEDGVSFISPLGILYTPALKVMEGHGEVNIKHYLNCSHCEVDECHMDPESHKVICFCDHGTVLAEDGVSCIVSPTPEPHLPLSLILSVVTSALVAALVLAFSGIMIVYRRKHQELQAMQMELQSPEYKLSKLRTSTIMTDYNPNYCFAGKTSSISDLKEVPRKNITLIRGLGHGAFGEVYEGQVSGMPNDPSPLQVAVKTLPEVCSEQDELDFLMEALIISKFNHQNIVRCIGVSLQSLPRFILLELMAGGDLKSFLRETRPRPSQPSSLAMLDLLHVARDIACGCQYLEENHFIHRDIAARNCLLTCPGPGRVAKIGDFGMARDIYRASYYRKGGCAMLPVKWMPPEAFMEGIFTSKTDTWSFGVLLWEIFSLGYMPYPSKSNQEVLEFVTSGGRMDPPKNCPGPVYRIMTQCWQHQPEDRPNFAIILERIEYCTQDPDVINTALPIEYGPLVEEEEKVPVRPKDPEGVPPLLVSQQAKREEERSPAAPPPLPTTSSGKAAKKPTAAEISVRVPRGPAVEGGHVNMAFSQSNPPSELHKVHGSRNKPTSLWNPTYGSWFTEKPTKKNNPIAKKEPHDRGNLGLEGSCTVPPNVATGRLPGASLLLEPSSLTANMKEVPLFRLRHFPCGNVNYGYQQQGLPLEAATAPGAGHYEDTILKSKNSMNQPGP", "assay": "Induction of ALK (unknown origin) degradation"}, "[5]": {"target": "T1, Glutathione S-transferase A1 (Homo sapiens) (UniProt P08263)", "T1 sequence (whole entry)": "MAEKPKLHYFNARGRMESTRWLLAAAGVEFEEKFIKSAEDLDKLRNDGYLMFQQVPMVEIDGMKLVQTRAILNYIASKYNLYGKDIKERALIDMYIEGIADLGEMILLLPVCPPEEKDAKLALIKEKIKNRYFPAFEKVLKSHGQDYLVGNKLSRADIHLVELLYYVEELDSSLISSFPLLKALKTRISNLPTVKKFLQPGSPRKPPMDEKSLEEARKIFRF", "assay": "Induction of GSTAlpha1 degradation in human HeLa cells at 80 uM measured after 4 hrs relative to control", "format": "cell-based"}, "[6]": {"target": "TAR DNA-binding protein 43 (Mus musculus) (UniProt Q921F2)", "sequence (Q921F2 whole entry)": "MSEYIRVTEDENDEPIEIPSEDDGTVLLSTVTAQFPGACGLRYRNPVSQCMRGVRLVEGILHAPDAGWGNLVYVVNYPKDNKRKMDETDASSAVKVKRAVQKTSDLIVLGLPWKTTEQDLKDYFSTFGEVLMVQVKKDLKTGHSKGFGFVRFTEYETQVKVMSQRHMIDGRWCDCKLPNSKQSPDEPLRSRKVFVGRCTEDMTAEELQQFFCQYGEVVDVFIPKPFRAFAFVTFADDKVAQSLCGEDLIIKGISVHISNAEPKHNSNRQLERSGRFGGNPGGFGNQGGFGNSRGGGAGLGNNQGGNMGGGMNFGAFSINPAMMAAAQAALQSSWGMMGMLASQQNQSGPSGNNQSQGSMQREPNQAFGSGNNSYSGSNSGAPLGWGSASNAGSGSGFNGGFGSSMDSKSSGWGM", "assay": "Induction of TDP-43 degradation in mouse N2a cells at 100 uM measured after 24 hrs by Western blot analysis relative to control", "format": "cell-based"}, "[7]": {"assay": "Antiproliferative activity against HER3 dependent human PC9 Gefitinib-resistant 4 (GR4) cell assessed as cell viability by CellTiter-Glo Luminescent Assay", "format": "functional, cell-based"}, "OVCAR-8": {"system": "OVCAR-8", "assay": "Antiproliferative activity against HER3 dependent human OVCAR-8 cells assessed as cell viability by CellTiter-Glo Luminescent Assay", "format": "functional, cell-based"}, "[8]": {"assay": "Antiproliferative activity against HER3 dependent human HCC827 Gefitinib-resistant 6 (GR6) cell assessed as cell viability by CellTiter-Glo Luminescent Assay", "format": "functional, cell-based"}, "[9]": {"target": "Microtubule-associated protein tau (Mus musculus) (UniProt P10637)", "sequence (P10637 whole entry)": "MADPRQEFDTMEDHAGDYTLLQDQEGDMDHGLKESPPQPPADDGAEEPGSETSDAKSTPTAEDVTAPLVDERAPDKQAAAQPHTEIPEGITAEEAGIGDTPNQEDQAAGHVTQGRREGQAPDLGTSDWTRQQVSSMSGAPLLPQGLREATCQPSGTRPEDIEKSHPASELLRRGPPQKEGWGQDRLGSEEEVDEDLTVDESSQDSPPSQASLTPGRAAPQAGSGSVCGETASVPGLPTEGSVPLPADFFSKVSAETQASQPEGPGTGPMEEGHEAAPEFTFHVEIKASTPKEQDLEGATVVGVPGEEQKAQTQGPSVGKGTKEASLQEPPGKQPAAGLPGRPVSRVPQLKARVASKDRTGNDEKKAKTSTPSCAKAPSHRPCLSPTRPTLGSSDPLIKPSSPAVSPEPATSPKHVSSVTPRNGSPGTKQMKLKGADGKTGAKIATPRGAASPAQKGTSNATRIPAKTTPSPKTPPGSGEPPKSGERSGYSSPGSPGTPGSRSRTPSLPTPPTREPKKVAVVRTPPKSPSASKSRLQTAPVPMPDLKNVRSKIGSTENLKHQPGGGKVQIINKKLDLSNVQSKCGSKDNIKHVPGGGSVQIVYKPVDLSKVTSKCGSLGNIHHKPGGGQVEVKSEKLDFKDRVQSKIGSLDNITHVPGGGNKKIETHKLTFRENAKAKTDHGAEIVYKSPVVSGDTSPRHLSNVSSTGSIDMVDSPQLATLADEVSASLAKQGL", "assay": "Induction of tau degradation in mouse N2a cells at 150 uM measured after 24 hrs by Western blot analysis relative to control", "format": "cell-based"}, "NCI-H3122": {"system": "NCI-H3122", "assay": "Anticancer activity against human NCI-H3122 cells xenografted in mouse assessed as tumor growth inhibition at 20 mg/kg, po administered once every two days for 3 weeks relative to control", "format": "functional", "conditions": "NCI-H3122, 504 h, read-out: TGI"}, "[10]": {"target": "T1, Glutathione S-transferase A1 (Homo sapiens)", "assay": "Induction of GSTAlpha1 degradation in […] cells at 40 uM measured after 4 hrs", "format": "cell-based"}, "[11]": {"target": "T2, Dihydrofolate reductase (Escherichia coli) (UniProt P0ABQ4)", "T2 sequence (whole entry)": "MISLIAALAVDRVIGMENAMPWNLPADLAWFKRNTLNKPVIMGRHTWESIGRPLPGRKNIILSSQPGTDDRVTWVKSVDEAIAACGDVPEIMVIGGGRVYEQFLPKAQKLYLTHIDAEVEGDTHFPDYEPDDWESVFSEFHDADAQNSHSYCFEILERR", "assay": "Induction of Escherichia coli DHFR degradation in […] cells at 80 uM measured after 4 hrs", "format": "cell-based"}}, "note": "Starred links: 1 amine or outer side, 2 acyl side, 3 side chain; linkers in the order of their positions; H or OH if unused. Non-standard residues stand in square brackets, D forms with d. Residues, ends and D or L forms follow the SMILES beside them. *: point of attachment. Adamantane1carbonyl = O=C(C12CC3CC(CC(C3)C1)C2)*; X1 = O=C(C12CC3CC(CC(N[*:1])(C3)C1)C2)[*:2]", "data": [{"smiles": "COc1cc(N2CCN(CCCCCCCCCCCCNC(=O)CC34CC5CC(CC(C5)C3)C4)CC2)ccc1Nc1ncc2c(C)cc(=O)n(-c3cccc(NC(=O)C4CC4)c3)c2n1", "values": [{"measurement": "inhibition in vivo at 20 mg/kg", "setting": "PC-9", "result": 75, "unit": "%"}, {"measurement": "DC50", "setting": "[1]", "result": "> 1000", "unit": "nM"}, {"measurement": "DC50", "setting": "[2]", "result": "> 1000", "unit": "nM"}, {"measurement": "DC50", "setting": "[3]", "result": 13, "unit": "nM"}]}, {"smiles": "Cc1cc(C)c(CNC(=O)c2cc(-c3ccc(N4CCN(CCNC(=O)CC56CC7CC(CC(C7)C5)C6)CC4)nc3)cc3c2cnn3C(C)C)c(=O)[nH]1", "values": [{"measurement": "GI50", "setting": "MCF7", "result": 1100, "unit": "nM"}, {"measurement": "GI50", "setting": "KARPAS-422", "result": 1100, "unit": "nM"}, {"measurement": "GI50", "setting": "SU-DHL-8", "result": 1100, "unit": "nM"}, {"measurement": "GI50", "setting": "HCC1187", "result": 1100, "unit": "nM"}, {"measurement": "GI50", "setting": "HCC70", "result": 1100, "unit": "nM"}, {"measurement": "GI50", "setting": "HCC1954", "result": 1100, "unit": "nM"}, {"measurement": "GI50", "setting": "BT-549", "result": 1100, "unit": "nM"}]}, {"smiles": "COc1cc(N2CCN(CC(=O)NCC3CC4C=CC3C4)CC2)ccc1Nc1ncc(Cl)c(Nc2ccccc2P(C)(C)=O)n1", "note": "(stereo not drawn)", "values": [{"measurement": "DC50", "setting": "[4]", "result": 89, "unit": "nM"}]}, {"smiles": "C=C(CC)C(=O)c1ccc(OCC(=O)O)c(Cl)c1Cl", "values": [{"measurement": "Activity", "setting": "[5]", "result": 75, "unit": "%"}]}, {"smiles": "CC[C@H](C)[C@H](NC(=O)CNC(=O)[C@H](CCCCN)NC(=O)[C@@H](NC(=O)[C@@H](NC(=O)[C@H](CC(C)C)NC(=O)[C@H](CC(=O)O)NC(=O)[C@H](CCC(=O)O)NC(=O)[C@H](CO)NC(=O)CNC(=O)[C@H](CO)NC(=O)CNC(=O)[C@H](CCCCN)NC(=O)C12CC3CC(CC(NC(=O)C45CC6CC(CC(C6)C4)C5)(C3)C1)C2)[C@@H](C)CC)[C@@H](C)CC)C(=O)N[C@@H](CO)C(=O)N[C@H](C(=O)NCC(=O)N[C@@H](CCCNC(=N)N)C(=O)N[C@@H](CCCCN)C(=O)N[C@@H](CCCCN)C(=O)N[C@@H](CCCNC(=N)N)C(=O)N[C@@H](CCCNC(=N)N)C(=O)N[C@@H](CCC(N)=O)C(=O)N[C@@H](CCCNC(=N)N)C(=O)N[C@@H](CCCNC(=N)N)C(=O)N[C@@H](CCCNC(=N)N)C(N)=O)C(C)C", "note": "(Adamantane1carbonyl-[X1]KGSGSEDLIIKGISVGRKKRRQRRR-NH2)", "values": [{"measurement": "Activity", "setting": "[6]", "result": 80, "unit": "%"}]}, {"smiles": "Cc1cc(Nc2ncc(Cl)c(Nc3ccccc3S(=O)(=O)C(C)C)n2)c(OC(C)C)cc1C1CCN(CC(=O)NCC2CC3C=CC2C3)CC1", "note": "(stereo not drawn)", "values": [{"measurement": "DC50", "setting": "[4]", "result": 314, "unit": "nM"}]}, {"smiles": "C=CC(=O)Nc1cc(-c2nn(C3CCN(CCNC(=O)[C@H](C)CCC45CC6CC(CC(C6)C4)C5)CC3)c3ncnc(N)c23)ccc1Oc1ccccc1", "values": [{"measurement": "EC50", "setting": "[7]", "result": 800, "unit": "nM"}, {"measurement": "EC50", "setting": "OVCAR-8", "result": 800, "unit": "nM"}, {"measurement": "EC50", "setting": "[8]", "result": 800, "unit": "nM"}]}, {"smiles": "C[C@H](NC(=O)[C@H](CC(=O)O)NC(=O)[C@H](CCC(N)=O)NC(=O)[C@H](Cc1ccc(O)cc1)NC(=O)[C@H](CCC(N)=O)NC(=O)[C@H](CCC(N)=O)NC(=O)[C@H](Cc1ccc(O)cc1)NC(=O)C12CC3CC(CC(C3)C1)C2)C(=O)N[C@H](C(=O)N[C@@H](C)C(=O)N[C@@H](CC(=O)O)C(=O)N[C@@H](CCC(=O)O)C(=O)N[C@@H](CCC(N)=O)C(=O)NCC(=O)N[C@H](CCCNC(=N)N)C(=O)N[C@H](CCCNC(=N)N)C(=O)N[C@H](CCCNC(=N)N)C(=O)N[C@H](CCCNC(=N)N)C(=O)N[C@H](CCCNC(=N)N)C(=O)N[C@H](CCCNC(=N)N)C(=O)N[C@H](CCCNC(=N)N)C(=O)N[C@H](CCCNC(=N)N)C(N)=O)[C@@H](C)O", "values": [{"measurement": "Activity", "setting": "[9]", "result": 88, "unit": "%"}]}, {"smiles": "CCc1cc2c(cc1N1CCN(CCCCC(=O)NCC3CC4C=CC3C4)CC1)C(C)(C)c1[nH]c3cc(C#N)ccc3c1C2=O", "note": "(stereo not drawn)", "values": [{"measurement": "inhibition in vivo at 20 mg/kg", "setting": "NCI-H3122", "result": 58, "unit": "%"}, {"measurement": "DC50", "setting": "[4]", "result": 134, "unit": "nM"}]}, {"smiles": "COc1cc(Cc2cnc(N)nc2N)cc(OC)c1OCC(=O)NCCCCCCNC(=O)[C@@H](CCCN/C(=N\\C(=O)OC(C)(C)C)NC(=O)OC(C)(C)C)NC(=O)OC(C)(C)C", "values": [{"measurement": "Activity", "setting": "[10]", "result": 80, "unit": "%"}, {"measurement": "Activity", "setting": "[11]", "result": 60, "unit": "%"}]}]}
